# Laboratory results reported in patent publication US20010016593A1, “Element giving rapid release of nicotine for transmucosal administration” (priority 1999, published 2001).
# Key:
# [1] = 10 mg tablets swallowed at two hour intervals; cited from earlier work
# [2] = Element placed in the mouth: subjectively reported nicotine pulse sensation; type: in vivo, humans; conditions: equivalent amounts of nicotine
# Text: The experiments of Examples 1-16 above describe the physiological effects of consuming a measured (calculated) dose of nicotine in the manner of the instant invention. Moreover, the inventor has found a distinct physiological and mental sensation associated with the administration of one or more nicotine doses. This is believed to strongly resemble the physiological and mental sensation associated with inhaling a puff of the smoke of burning tobacco, which it is believed have some pleasurable component or consideration thereof on the part of the recipient. There is believed to be some longer-lasting physiological and/or mental satisfaction, or lack of further nicotine effect desire, after one or more administrations of nicotine, just as is the case for most people after smoking a part or all of one or more cigarettes.
# The examples as described above are of necessity reported in a subjective manner.
# [3] = cigarette smoking; cited from earlier work
# [4] = cited from earlier work
# [5] = during cigarette smoking; cited from earlier work
# [6] = in vivo; cited from earlier work
# [7] = solutions on shaved bellies of cats; cited from earlier work
# [8] = pH less than 7; cited from earlier work
Compound,effect of swallowed tablets [1],efficiency of transmucosal administration compared with smoking [2],time to carry nicotine from the lungs to the brain [3],"confusion, memory loss and lack of alertness associated with Alzheimer's disease ([4]; nicotine administration)","local tolerability of the injection ([4]; subcutaneous injection, under some conditions)","discriminative sensitivity and reaction time ([4]; subcutaneous injection, patients with dementia of the Alzheimer type)",arterial levels exceeding venous levels [5],"mental efficiency, rapid information processing, learning, and vigilance [6]",rate of percutaneous absorption [7],bucal absorption [8]
CN1CCCC1c1cccnc1.O=C(O)C(O)C(O)C(=O)O (stereo not shown) [nicotine tartrate],only a small effect,–,–,–,–,–,–,–,–,–
CN1CCCC1c1cccnc1 (stereo not shown) [nicotine],–,not as efficient as smoking,less than 20 seconds,"combated the confusion, memory loss and lack of alertness",severe muscular irritation,efficacious in improving discriminative sensitivity and reaction time,six to ten,"improve mental efficiency, rapid information processing, learning, and vigilance",much more rapidly than nicotine salts,very slow
